Test results taken from US5330983A, “14-O-p-chlorobenzoylaconine and analgesic/anti-inflammatory agent containing the same” (priority 1991, dated 1994).

How the values were obtained:
[1] = tested on: Male mice of the Std:ddY Strain; test: Analgesic activity by the phenylquinone-induced writhing method; type: in vivo; settings: phenylquinone i.p., counted for 15 min, n = 8~10
Method: Measurement of Analgesic Activity by the Phenylquinone-Induced Writhing Method
Male mice of the Std:ddY Strain (20-25 g), which were fasted for one night before the initiation of the experiment, were used. Test compound hardly soluble in water was used in 3% suspension in gum arabic. Test compound taking a salt form was used in aqueous solution. 0.03% phenylquinone in 0.5% ethanol solution was injected i.p. (10 ml/kg) at 2 hours and 55 minutes after the compound was administered p.o. After 5 minutes, the number of writhings was counted for a period of 15 minutes.

[2] = tested on: Male mice of the Std:ddY Strain; test: Analgesic activity by the tail-pressure method; type: in vivo
Method: Measurement of Analgesic Activity by the Tail-Pressure Method
Male mice of the Std:ddY Strain (20-25 g), which were fasted for one night before the initiation of the experiment, were used. Test compound hardly soluble in water was used in 3% suspension in gum arabic. Test compound taking a salt form was used in aqueous solution. Experiments were made with a tail-pressure apparatus. Before the administration of test compounds, the pain threshold was measured twice at intervals of 30 minutes and those mice indicating a pain threshold of 30 to 80 mmHg were selected and used. The pain threshold of each mouse was measured at 1, 3 and 5 hours after test compounds were administered p.o. The results were described as a percentage of the pain threshold after the treatment with test compound relative to that before the treatment with test compound.

[3] = tested on: Male mice of the Std:ddY Strain; test: Analgesic activity by the acetic acid-induced writhing method; type: in vivo; settings: acetic acid i.p., counted for 10 min, n = 10
Method: Measurement of Analgesic Activity by the Acetic Acid-Induced Writhing Method
Male mice of the Std:ddY Strain (20-25 g), which were fasted for one night before the initiation of the experiment, were used. Test compound hardly soluble in water was used in 3% suspension in gum arabic. Test compound taking a salt form was used in aqueous solution. 0.7% acetic acid in 0.9% physiological saline solution was injected i.p. (10 ml/kg) at 2 hours and 50 minutes after the test compound was administered p.o. After 10 minutes, the number of writhing movements was counted for a period of 10 minutes.

in vivo = test: in vivo; parameters: species or system mice (Std:ddY); settings: mouse, in vivo, po; mortality during 72 hours; Litchfield-Wilcoxon
Source text: EXPERIMENT EXAMPLE 6 (ACUTE TOXICITY)
Male mice of the Std:ddY Strain (20-25 g), which were fasted for one night before the initiation of the experiment, were used. Test compound hardly soluble in water was used in 3% suspension in gum arabic. Test compound taking a salt form was used in aqueous solution.

[4] = tested on: Male mice of the Std:ddY Strain; test: Analgesic activity by the hot plate method; type: in vivo; settings: 52° C. plate
Method: Measurement of Analgesic Activity by the Hot Plate Method
Male mice of the Std:ddY Strain (20-25 g), which were fasted for one night before the initiation of the experiment, were used. Test compound hardly soluble in water was used in 3% suspension in gum arabic. Test compound taking a salt form was used in aqueous solution. Mice were placed on a cyrindric hot plate (diameter: 22 cm, height: 11 cm) made of copper which was fixed in a water bath adjusted to 52° C. so that each animal's four paws came into contact with the plate and the time taken to show the nociceptive response (jumping and licking) as an index of pain was measured. Mice showing response times above 25 seconds were excluded from the experiment. The analgesic activity of the compound was measured at 1, 3 and 5 hours after test compound was administered p.o. The results are shown in Table 4.

[5] = tested on: Male rats of the Wistar strain; test: Antiinflammatory activity by the carrageenin-induced hind paw edema; type: in vivo; settings: 100 mg/kg p.o.
Method: Measurement of Antiinflammatory Activity by the Carrageenin-Induced Hind Paw Edema
Male rats of the Wistar strain (5 weeks old, 120-130 g), which were fasted for one night before the initiation of the experiment, were used. One hour after the oral administration of test compound, λ-carrageenin (1%) was injected s.c. under the plantar surface of the right hind paw. Thereafter, at one hour intervals for 6 hours, the volume of the paw was measured using an apparatus therefor. The results were described as a swelling rate (%) calculated using the following equation:
(R-L)×100/L=swelling rate (%)
R: the volume of the right hind paw
L: the volume of the left hind paw

CCN1CC2(COC)C(O)CC(OC)C34C5CC6(O)C(OC)C(O)C(C5C6OC(=O)c5ccccc5)C(C(OC)C23)C14 (stereo not shown) [8-deoxy-14-O-benzoylaconine, reference compound]
The number of writhings, mean ± S.E. ([1]; 3 mg/kg p.o.): 27.1 ± 2.7 | The number of writhings, mean ± S.E. ([1]; 10 mg/kg p.o.): 25.0 ± 3.0 | The number of writhings, mean ± S.E. ([1]; 30 mg/kg p.o.): 24.0 ± 2.3 | Pain threshold (%, mean ± S.E.), posttreatment relative to pretreatment ([2]; 100 mg/kg p.o., 1 h): 101.8 ± 14.1% | Pain threshold (%, mean ± S.E.), posttreatment relative to pretreatment ([2]; 100 mg/kg p.o., 3 h): 100.2 ± 7.2% | Pain threshold (%, mean ± S.E.), posttreatment relative to pretreatment ([2]; 100 mg/kg p.o., 5 h): 105.6 ± 9.2% | Pain threshold (%, mean ± S.E.), posttreatment relative to pretreatment ([2]; 300 mg/kg p.o., 1 h): 115.6 ± 17.0% | Pain threshold (%, mean ± S.E.), posttreatment relative to pretreatment ([2]; 300 mg/kg p.o., 3 h): 116.2 ± 12.0% | Pain threshold (%, mean ± S.E.), posttreatment relative to pretreatment ([2]; 300 mg/kg p.o., 5 h): 110.2 ± 7.0% | The number of writhings, mean ± S.E. ([3]; 3 mg/kg p.o.): 24.1 ± 2.7 | The number of writhings, mean ± S.E. ([3]; 10 mg/kg p.o.): 21.9 ± 2.6 | The number of writhings, mean ± S.E. ([3]; 30 mg/kg p.o.): 17.8 ± 2.5 | LD50 at 72 h (in vivo): > 100 mg/kg | Pain threshold (s, mean ± S.E.) ([4]; 100 mg/kg p.o., 1 h): 17.3 ± 1.7 s | Pain threshold (s, mean ± S.E.) ([4]; 100 mg/kg p.o., 3 h): 17.9 ± 2.1 s | Pain threshold (s, mean ± S.E.) ([4]; 100 mg/kg p.o., 5 h): 18.9 ± 1.7 s | Pain threshold (s, mean ± S.E.) ([4]; 300 mg/kg p.o., 1 h): 18.6 ± 1.6 s | Pain threshold (s, mean ± S.E.) ([4]; 300 mg/kg p.o., 3 h): 24.0 ± 2.3 s | Pain threshold (s, mean ± S.E.) ([4]; 300 mg/kg p.o., 5 h): 19.6 ± 2.0 s | Swelling rate (%, mean ± S.E.) ([5]; 1 h after carrageenin): 24.8 ± 9.2% | Swelling rate (%, mean ± S.E.) ([5]; 2 h after carrageenin): 36.3 ± 6.3% | Swelling rate (%, mean ± S.E.) ([5]; 3 h after carrageenin): 59.8 ± 6.3% | Swelling rate (%, mean ± S.E.) ([5]; 4 h after carrageenin): 63.5 ± 1.0% | Swelling rate (%, mean ± S.E.) ([5]; 5 h after carrageenin): 70.3 ± 3.9% | Swelling rate (%, mean ± S.E.) ([5]; 6 h after carrageenin): 72.2 ± 6.0%
